We go through 21 molecules from patent US8759535B2, “Substituted fused imidazole derivatives, pharmaceutical compositions, and methods of use thereof” (High Point Pharmaceuticals, LLC, priority 2010, dated 2014).

Structures are written as SMILES. Where a name gives a salt, the structure may show the parent alone.

As usually defined, the fold induction is the signal under treatment as a multiple of the control signal. A high value points to a large rise in signal.

One experiment concerns HMOX1. The experiment is described as follows: HMOX1 Protein Assay (immunostaining of HO-1 in NHLF cells, GE InCell 1000). The format is cell-based. Conditions: Homo sapiens, fold change above DMSO treated cells, 3 μM compound (asterisk), 16 h. An outline of the steps:
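NHLF cells seeded overnight in FGM-2, then exposed to compound or DMSO vehicle for 16 h, fixed, and immunostained for HO-1 with Hoechst nuclear counterstain; imaged on InCell 1000. Values are fold change over DMSO-treated cells, generally at 5 μM (0.8% DMSO), with asterisked entries at 3 μM.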
For the molecule `Cn1c(Nc2nc3ccc(Cl)cc3s2)nc2cc(C(=O)NCCCN3CCCC3)ccc21` [Example 354, 2-(6-Chloro-benzothiazol-2-ylamino)-1-methyl-1H-benzoimidazole-5-carboxylic acid (3-pyrrolidin-1-yl-propyl)-amide], the fold induction at 3 µM came to 17.
In the case of `Cn1c(Nc2nc3ccc(C(F)(F)F)cc3s2)nc2cc(C(=O)NCCN3CCOCC3)ccc21` [Example 341, 1-Methyl-2-(6-trifluoromethyl-benzothiazol-2-ylamino)-1H-benzoimidazole-5-carboxylic acid (2-morpholin-4-yl-ethyl)-amide], the fold induction at 3 µM is 32.8.
Still for that read-out and setting: the figure for `Cn1c(Nc2nc3ccc(C(F)(F)F)cc3s2)nc2cc(C(=O)NCC(=O)N3CCC[C@H](O)C3)ccc21` [Example 434, 1-Methyl-2-(6-trifluoromethyl-benzothiazol-2-ylamino)-1H-benzoimidazole-5-carboxylic acid [2-((S)-3-hydroxy-piperidin-1-yl)-2-oxo-ethyl]-amide] is 34.6.
Still for that read-out and setting: as for `Cn1c(Nc2nc3ccc(OC(F)(F)F)cc3s2)nc2cc(C(=O)NCC(=O)N3CCC(C#N)CC3)ccc21` [Example 450, 1-Methyl-2-(6-trifluoromethoxy-benzothiazol-2-ylamino)-1H-benzoimidazole-5-carboxylic acid [2-(4-cyano-piperidin-1-yl)-2-oxo-ethyl]-amide], the figure is 51.

The same experiment, now with this note: Homo sapiens, fold change above DMSO treated cells, 5 μM compound, 16 h.
The molecule `COc1cc2c(cc1C(=O)NCC(=O)N(C)C)nc(Nc1nc3ccc(OC(F)(F)F)cc3s1)n2C` [Example 63, 6-Methoxy-1-methyl-2-(6-trifluoromethoxy-benzothiazol-2-ylamino)-1H-benzoimidazole-5-carboxylic acid dimethylcarbamoylmethyl-amide] showed a fold induction at 5 µM of 9.8.
Still for that read-out and setting: as for `CNC1CCN(C(=O)CNC(=O)c2ccc3c(c2)nc(Nc2nc4ccc(Cl)cc4s2)n3C)CC1` [Example 454, 2-(6-Chloro-benzothiazol-2-ylamino-1-methyl-1H-benzoimidazole-5-carboxylic acid [2-(4-methylamino-piperidin-1-yl)-2-oxo-ethyl]-amide hydrochloride], the figure is 62.2; as for `CN(C)S(=O)(=O)N1CCN(C(=O)CNC(=O)c2ccc3c(c2)nc(Nc2nc4ccc(Cl)cc4s2)n3C)CC1` [Example 430, 2-(6-Chloro-benzothiazol-2-ylamino)-1-methyl-1H-benzoimidazole-5-carboxylic acid [2-(4-dimethylsulfamoyl-piperazin-1-yl)-2-oxoethyl]-amide], 22.7; as for `CNCCOCCNC(=O)c1ccc2c(c1)nc(Nc1nc3ccc(OC(F)(F)F)cc3s1)n2C` [Example 271, 1-Methyl-2-(6-trifluoromethoxy-benzothiazol-2-ylamino)-1H-benzoimidazole-5-carboxylic acid [2-(2-methylamino-ethoxy)-ethyl]-amide hydrochloride], 69.9.
Still for that read-out and setting: as for `CN(C)CC1CCN(C(=O)CNC(=O)c2ccc3c(c2)nc(Nc2nc4ccc(OC(F)(F)F)cc4s2)n3C)CC1` [Example 458, 1-Methyl-2-(6-trifluoromethoxy-benzothiazol-2-ylamino)-1H-benzoimidazole-5-carboxylic acid [2-(4-dimethylaminomethyl-piperidin-1-yl)-2-oxo-ethyl]-amide], the figure is 68.5.
On the same count and under the same terms, the figure for `Cn1c(Nc2nc3ccc(Cl)cc3s2)nc2cc(C(=O)N3CCN(CCO)CC3)ccc21` [Example 306, [2-(6-Chloro-benzothiazol-2-ylamino)-1-methyl-1H-benzoimidazol-5-yl]-[4-(2-hydroxy-ethyl)-piperazin-1-yl]-methanone] is 38.7; for `Cn1c(Nc2nc3ccc(OC(F)(F)F)cc3s2)nc2cc(C(=O)NC[C@H]3CC[C@H](CO)CC3)ccc21` [Example 254, 1-Methyl-2-(6-trifluoromethoxy-benzothiazol-2-ylamino)-1H-benzoimidazole-5-carboxylic acid (trans-4-hydroxymethyl-cyclohexylmethyl)-amide] it is 47.4; for `CNC(=O)c1ccc2nc(Nc3nc4ccc(OC(F)(F)F)cc4s3)n(C)c2c1` [Example 38, 3-Methyl-2-(6-trifluoromethoxy-benzothiazol-2-ylamino)-3H-benzoimidazole-5-carboxylic acid methylamide] it is 18.
`CCOC(=O)C1(NC(=O)c2ccc3c(c2)nc(Nc2nc4ccc(OC(F)(F)F)cc4s2)n3C)CC1` [Example 144, 1-{[1-Methyl-2-(6-trifluoromethoxy-benzothiazol-2-ylamino)-1H-benzimidazole-5-carbonyl]-amino}-cyclopropanecarboxylic acid ethyl ester] yielded a fold induction at 5 µM of 7.3.
In the case of `COC(=O)[C@H](C)NC(=O)c1ccc2c(c1)nc(Nc1nc3ccc(OC(F)(F)F)cc3s1)n2C` [Example 143, (S)-2-{[1-Methyl-2-(6-trifluoromethoxy-benzothiazol-2-ylamino)-1H-benzoimidazole-5-carbonyl]-amino}-propionic acid methyl ester], the fold induction at 5 µM was 22.4.
The molecule `Cn1c(Nc2nc3ccc(OC(F)(F)F)cc3s2)nc2cc(C(=O)NCC(=O)N3CCC(Oc4ncccn4)CC3)ccc21` [Example 452, 1-Methyl-2-(6-trifluoromethoxy-benzothiazol-2-ylamino)-1H-benzoimidazole-5-carboxylic acid {2-oxo-2-[4-(pyrimidin-2-yloxy)-piperidin-1-yl]-ethyl}-amide] came in with a fold induction at 5 µM of 71.7.
The same measure, in the same setting: the figure for `COc1cc2c(cc1C(=O)NCCN1CCOCC1)nc(Nc1nc3ccc(OC(F)(F)F)cc3s1)n2C` [Example 66, 6-Methoxy-1-methyl-2-(6-trifluoromethoxy-benzothiazol-2-ylamino)-1H-benzoimidazole-5-carboxylic acid (2-morpholin-4-yl-ethyl)-amide] is 20.8; for `CCNC(=O)c1ccc2c(c1)nc(Nc1nc3ccc(OC(F)(F)F)cc3s1)n2C(C)C` [Example 161, 1-Isopropyl-2-(6-trifluoromethoxy-benzothiazol-2-ylamino)-1H-benzoimidazole-5-carboxylic acid ethylamide] it is 19.1.
Molecule `Cn1c(Nc2nc3ccc(OC(F)(F)F)cc3s2)nc2cc(C(=O)NCCC#N)ccc21` [Example 212, 1-Methyl-2-(6-trifluoromethoxy-benzothiazol-2-ylamino)-1H-benzoimidazole-5-carboxylic acid (2-cyano-ethyl)-amide] had a fold induction at 5 µM of 48.8.
Same read-out and setting: as for `CC(C)n1c(Nc2nc3ccc(OC(F)(F)F)cc3s2)nc2cc(C(=O)O)ccc21` [Example 159, 1-Isopropyl-2-(6-trifluoromethoxy-benzothiazol-2-ylamino)-1H-benzoimidazole-5-carboxylic acid], the figure is 26.7; as for `Cn1c(Nc2nc3cc(F)c(F)cc3s2)nc2cc(C(=O)O)ccc21` [Example 34, 2-(5,6-Difluoro-benzothiazol-2-ylamino)-1-methyl-1H-benzoimidazole-5-carboxylic acid], 15.4; as for `COCCn1c(Nc2nc3ccc(OC(F)(F)F)cc3s2)nc2cc(C(=O)NCCOCCO)ccc21` [Example 241, 1-(2-Methoxy-ethyl)-2-(6-trifluoromethoxy-benzothiazol-2-ylamino)-1H-benzoimidazole-5-carboxylic acid [2-(2-hydroxy-ethoxy)-ethyl]-amide], 23.7.
